# Literature values, collected in patent US20110070305A1, “SUSTAINED RELEASE PHARMACEUTICAL COMPOSITION CONTAINING MEBICAR” (ALPHARX INC., priority 2009, published 2011).
# Experiments:
# [1] = orally administered
structure (smiles),measurement,setting,value
CN1C(=O)N(C)C2C1N(C)C(=O)N2C (stereo not drawn) [Mebicar],solubility in alcohol and most polar organic solvents,alcohol and most polar organic solvents,soluble
same,solubility in water,"water, ambient temperature",about 50%
same,half-life,[1],approximately 3 hours
